Reference: patent publication US20240308988A1, “Method For Controlling Diamide Resistant Pests and Compounds Therefor” (priority 2021, published 2024)

Legend:
[1] = system: Resistant Plutella xylostella R4 (carries the RyR mutation G4946E); test: Resistant Plutella xylostella R4 (Diamond back moth) larvicide L1, feeding/contact, artificial diet in 24-well plates; format: in vivo; details: for pest or weed control at 50 µg/mL: Plutella xylostella, 192 h, read-out: control of the resistant strain of Plutella xylostella R4
Description: Resistant Plutella xylostella R4 (Diamond back moth) larvicide L1, feeding/contact 24-well microtiter plates with artificial diet were treated with aqueous test solutions prepared from 10′000 ppm DMSO stock solutions by pipetting. After drying, around 30 Plutella eggs were pipetted through a plastic stencil onto a gel blotting paper and the plate was closed with it. The samples were assessed for mortality in comparison to untreated samples 8 days after infestation.
Chlorantraniliprole was used as standard and a resistance factor of 242 was obtained for this strain
Plutella xylostella resistant strain R4 originated in the lab in 2021 from crossing the R1 strain with a lab-reared susceptible P. xylostella strain (SUS). R4 can be reared and tested on artificial diet and also carries the RyR mutation G4946E conferring resistance to diamides. The strain is selected approximately every two weeks with chlorantraniliprole. The following compounds, according to the present invention, gave at least 80% control of the resistant strain of Plutella xylostella R4 at 50 ppm or below: P11, P18, P26, P31, P33, P34, P36, P38, P42, P43, P46, P49, P50, P52, P56, P58, P60, P61, P63, P64, P65, P66, P67, P73, P76, P84, P97, P99, P102, P105.

[2] = system: Plutella xylostella (Diamond back moth) ryanodine receptor, containing the G4946E resistance mutation; test: In vitro calcium fluorescence assay (Fluo-8 NW, FDSS) in human embryonic kidney cells expressing the ryanodine receptor; format: cell-based; details: table, EC50 (compound)/EC50 (cyantraniliprole), G4946E RyR in HEK cells
Description: Human embryonic kidney cells expressing the Plutella xylostella (Diamond back moth) ryanodine receptor, containing the G4946E resistance mutation, are loaded with Fluo-8 No Wash (NW) calcium-sensitive dye which responds by fluorescence to a change in intracellular calcium (e.g. stimulated by activation of ryanodine receptor). Test compounds are added in 10 rates to a 384-well plate containing dye-loaded cells and the fluorescent signal is measured using the Hamamatsu FDSS (Functional Drug Screening system). Dose-response curves are plotted to estimate the EC50. EC50 are normalized against an in-assay reference standard (cyantraniliprole) to address inter-assay variability. The ratio for a given compound is then obtained by the following formula:
REC50=EC50 (compound)/EC50 (cyantraniliprole).

[3] = system: Resistant Plutella xylostella R1 (multi-resistant larvae having the G4946E resistance mutation); test: Resistant Plutella xylostella R1 (Diamond back moth) larvicide L3, feeding/contact, sprayed Chinese cabbage leaves; format: in vivo; details: for pest or weed control at 50 µg/mL: Plutella xylostella, 96 h, read-out: control of the resistant strain of Plutella xylostella R1
Description: Resistant Plutella xylostella R1 (Diamond back moth) larvicide L3, feeding/contact Chinese cabbage plants were sprayed with diluted test solutions in an application chamber. Cut off leaves were placed into petri dishes with wetted filter paper and infested 1 day after application with 10 L3 multi-resistant Plutella xylostella larvae having the G4946E resistance mutation.
Samples were assessed 4 days after infestation for mortality and growth regulation.
Chlorantraniliprole was used as standard and a resistance factor of 146 was obtained for this strain.
Plutella xylostella resistant strain R1 originally collected from Taiwan in 2012 that carries the RyR mutation G4946E conferring resistance to diamides. The strain is reared on cabbage plants (Brassica aleracea) and selected approximately every two weeks with chlorantraniliprole.

With `CNC(=O)c1cc(Cl)cc(C)c1NC(=O)c1cc(Br)nn1-c1ncccc1Cl` [Chlorantraniliprole, chlorantraniliprole, reference compound] as the compound, how does the resistance factor ([1]; strain R4, chlorantraniliprole used as standard) read?
Its resistance factor is 242.

What about the “REC50 (Comparative compound)” value ([2]; secondary amide analogue) of the same compound?
The value was 0.35.

What about the resistance factor ([3]; strain R1, chlorantraniliprole used as standard) of the same compound?
The resistance factor was 146.

What does the source list for `Cc1cc(I)cc(C(N)=O)c1NC(=O)c1cc(OCC(F)(F)F)nn1-c1ncccc1Cl` [Compound P11, N-(2-carbamoyl-4-iodo-6-methyl-phenyl)-2-(3-chloro-2-pyridyl)-5-(2,2,2-trifluoroethoxy)pyrazole-3-carboxamide]?
pest or weed control at 50 µg/mL [1]: ≥ 80%; pest or weed control at 50 µg/mL [3]: ≥ 80%

Which results are given for `Cc1cc(Br)cc(C(N)=O)c1NC(=O)c1cc(C(F)(F)F)nn1-c1ncccc1Cl` [Compound P26, N-(4-bromo-2-carbamoyl-6-methyl-phenyl)-2-(3-chloro-2-pyridyl)-5-(trifluoromethyl)pyrazole-3-carboxamide]?
pest or weed control at 50 µg/mL [1]: ≥ 80%; REC50 (Compound of the invention) [2]: 0.19; pest or weed control at 50 µg/mL [3]: ≥ 80%

With `Cc1cc(C#N)cc(C(N)=O)c1NC(=O)c1cc(C(F)(F)F)nn1-c1ncccc1Cl` [Compound P31, N-(2-carbamoyl-4-cyano-6-methyl-phenyl)-2-(3-chloro-2-pyridyl)-5-(trifluoromethyl)pyrazole-3-carboxamide] as the compound, how does the pest or weed control at 50 µg/mL [1] read?
The pest or weed control at 50 µg/mL was ≥ 80%.

What about the “REC50 (Compound of the invention)” value [2] of the same compound?
The value was 0.28.

And the pest or weed control at 50 µg/mL [3]?
The pest or weed control at 50 µg/mL was ≥ 80%.

What does the source list for `NC(=O)c1cc(Cl)cc(Cl)c1NC(=O)c1cc(Br)nn1-c1ncc(Cl)cc1Cl` [Compound P33, 5-bromo-N-(2-carbamoyl-4,6-dichloro-phenyl)-2-(3,5-dichloro-2-pyridyl) pyrazole-3-carboxamide]?
pest or weed control at 50 µg/mL [1]: ≥ 80%; REC50 (Compound of the invention) [2]: 0.31; pest or weed control at 50 µg/mL [3]: ≥ 80%

What does the source list for `NC(=O)c1cc(Cl)cc(Br)c1NC(=O)c1cc(Br)nn1-c1ncccc1Cl` [Compound P34, 5-bromo-N-(2-bromo-6-carbamoyl-4-chloro-phenyl)-2-(3-chloro-2-pyridyl) pyrazole-3-carboxamide]?
pest or weed control at 50 µg/mL [1]: ≥ 80%; REC50 (Compound of the invention) [2]: 0.18; pest or weed control at 50 µg/mL [3]: ≥ 80%

With `NC(=O)c1cc(Br)cc(Cl)c1NC(=O)c1cc(I)nn1-c1ncccc1Cl` [Compound P36, N-(4-bromo-2-carbamoyl-6-chloro-phenyl)-2-(3-chloro-2-pyridyl)-5-iodo-pyrazole-3-carboxamide] as the compound, how does the pest or weed control at 50 µg/mL [1] read?
The pest or weed control at 50 µg/mL was ≥ 80%.

And the pest or weed control at 50 µg/mL [3]?
Its pest or weed control at 50 µg/mL is ≥ 80%.

Which pest or weed control at 50 µg/mL [1] does the source give for `Cc1cc(Br)cc(C(N)=O)c1NC(=O)c1cc(Cn2ncc(C(F)(F)F)n2)nn1-c1ncccc1Cl` [Compound P38, N-(4-bromo-2-carbamoyl-6-methyl-phenyl)-2-(3-chloro-2-pyridyl)-5-[[4-(trifluoromethyl)triazol-2-yl]methyl]pyrazole-3-carboxamide] here?
The pest or weed control at 50 µg/mL was ≥ 80%.

What about the pest or weed control at 50 µg/mL [3] of the same compound?
Its pest or weed control at 50 µg/mL is ≥ 80%.

Which pest or weed control at 50 µg/mL [1] does the source give for `Cc1cc(Br)cc(C(N)=O)c1NC(=O)c1cc(Cn2nnc(-c3ccc(C(F)(F)F)cc3)n2)nn1-c1ncccc1Cl` [Compound P43, N-(4-bromo-2-carbamoyl-6-methyl-phenyl)-2-(3-chloro-2-pyridyl)-5-[[5-[4-(trifluoromethyl)phenyl]tetrazol-2-yl]methyl]pyrazole-3-carboxamide] here?
Its pest or weed control at 50 µg/mL is ≥ 80%.

What about the pest or weed control at 50 µg/mL [3] of the same compound?
The pest or weed control at 50 µg/mL was ≥ 80%.

Which results are given for `NC(=O)c1cc(Br)cc(Br)c1NC(=O)c1cc(C(F)(F)F)nn1-c1ncccc1Cl` [Compound P46, 2-(3-chloro-2-pyridyl)-N-(2,4-dibromo-6-carbamoyl-phenyl)-5-(trifluoromethyl)-pyrazole-3-carboxamide]?
pest or weed control at 50 µg/mL [1]: ≥ 80%; REC50 (Compound of the invention) [2]: 0.39

For `Cc1cc(Cl)cc(C(N)=O)c1NC(=O)c1cc(Cn2nnc(-c3ccc(Br)cc3)n2)nn1-c1ncccc1Cl` [Compound P49, 5-[[5-(4-bromophenyl)tetrazol-2-yl]methyl]-N-(2-carbamoyl-4-chloro-6-methyl-phenyl)-2-(3-chloro-2-pyridyl)pyrazole-3-carboxamide], which pest or weed control at 50 µg/mL [1] is on record?
Its pest or weed control at 50 µg/mL is ≥ 80%.

And the pest or weed control at 50 µg/mL [3]?
The pest or weed control at 50 µg/mL was ≥ 80%.

What does the source list for `NC(=O)c1cc(Cl)cc(Cl)c1NC(=O)c1cc(I)nn1-c1ncccc1Cl` [Compound P50, N-(2-carbamoyl-4,6-dichloro-phenyl)-2-(3-chloro-2-pyridyl)-5-iodo-pyrazole-3-carboxamide]?
pest or weed control at 50 µg/mL [1]: ≥ 80%; pest or weed control at 50 µg/mL [3]: ≥ 80%

Which results are given for `NC(=O)c1cc(Cl)cc(Cl)c1NC(=O)c1cc(Cn2nnc(-c3ccc(C(F)(F)F)cc3)n2)nn1-c1ncccc1Cl` [Compound P58, N-(2-carbamoyl-4,6-dichloro-phenyl)-2-(3-chloro-2-pyridyl)-5-[[5-[4-(trifluoromethyl)phenyl]tetrazol-2-yl]methyl]pyrazole-3-carboxamide]?
pest or weed control at 50 µg/mL [1]: ≥ 80%; pest or weed control at 50 µg/mL [3]: ≥ 80%

`Cc1cc(I)cc(C(N)=O)c1NC(=O)c1cc(Br)nn1-c1ncccc1Cl` [Compound P63, 5-bromo-N-(2-carbamoyl-4-iodo-6-methyl-phenyl)-2-(3-chloro-2-pyridyl) pyrazole-3-carboxamide] was tested. Which pest or weed control at 50 µg/mL [1] did it give?
The pest or weed control at 50 µg/mL was ≥ 80%.

And the “REC50 (Compound of the invention)” value [2]?
Its value is 0.19.

What about the pest or weed control at 50 µg/mL [3] of the same compound?
The pest or weed control at 50 µg/mL was ≥ 80%.

`NC(=O)c1cc(I)cc(F)c1NC(=O)c1cc(C(F)(F)F)nn1-c1ncccc1Cl` [Compound P64, N-(2-carbamoyl-6-fluoro-4-iodo-phenyl)-2-(3-chloro-2-pyridyl)-5-(trifluoromethyl)pyrazole-3-carboxamide] was tested. Which pest or weed control at 50 µg/mL [1] did it give?
Its pest or weed control at 50 µg/mL is ≥ 80%.

What about the “REC50 (Compound of the invention)” value [2] of the same compound?
The value was 0.69.

Which results are given for `Cc1cc(C#N)cc(C(N)=O)c1NC(=O)c1cc(Cn2nnc(-c3ccc(C(F)(F)F)cc3)n2)nn1-c1ncccc1Cl` [Compound P67, N-(2-carbamoyl-4-cyano-6-methyl-phenyl)-2-(3-chloro-2-pyridyl)-5-[[5-[4-(trifluoromethyl)phenyl]tetrazol-2-yl]methyl]pyrazole-3-carboxamide]?
pest or weed control at 50 µg/mL [1]: ≥ 80%; REC50 (Compound of the invention) [2]: 0.63; pest or weed control at 50 µg/mL [3]: ≥ 80%

With `Cc1cc(Cl)cc(C(N)=O)c1NC(=O)c1cc(Br)nn1-c1ncccc1Br` [Compound P73, 5-bromo-2-(3-bromo-2-pyridyl)-N-(2-carbamoyl-4-chloro-6-methyl-phenyl)pyrazole-3-carboxamide] as the compound, how does the pest or weed control at 50 µg/mL [1] read?
Its pest or weed control at 50 µg/mL is ≥ 80%.

For `Cc1cc(Cl)cc(C(N)=O)c1NC(=O)c1cc(Cn2nnc(-c3ccc(F)cc3)n2)nn1-c1ncccc1Cl` [Compound P84, N-(2-carbamoyl-4-chloro-6-methyl-phenyl)-2-(3-chloro-2-pyridyl)-5-[[5-(4-fluorophenyl)tetrazol-2-yl]methyl] pyrazole-3-carboxamide], which pest or weed control at 50 µg/mL [1] is on record?
Its pest or weed control at 50 µg/mL is ≥ 80%.

With `Cc1cc(Cl)cc(C(N)=O)c1NC(=O)c1cc(Cn2nnc(-c3cccc(C(F)(F)F)c3)n2)nn1-c1ncccc1Cl` [Compound P97, N-(2-carbamoyl-4-chloro-6-methyl-phenyl)-2-(3-chloro-2-pyridyl)-5-[[5-[3-(trifluoromethyl)phenyl]tetrazol-2-yl]methyl]pyrazole-3-carboxamide] as the compound, how does the pest or weed control at 50 µg/mL [1] read?
Its pest or weed control at 50 µg/mL is ≥ 80%.

Which pest or weed control at 50 µg/mL [1] does the source give for `Cc1cc(-c2nnn(Cc3cc(C(=O)Nc4c(C)cc(Cl)cc4C(N)=O)n(-c4ncccc4Cl)n3)n2)ccc1Cl` [Compound P99, N-(2-carbamoyl-4-chloro-6-methyl-phenyl)-5-[[5-(4-chloro-3-methyl-phenyl)tetrazol-2-yl]methyl]-2-(3-chloro-2-pyridyl)pyrazole-3-carboxamide] here?
Its pest or weed control at 50 µg/mL is ≥ 80%.

With `Cc1cc(Cl)cc(C(N)=O)c1NC(=O)c1cc(Cn2nnc(-c3ccc(F)c(Br)c3)n2)nn1-c1ncccc1Cl` [Compound P102, 5-[[5-(3-bromo-4-fluoro-phenyl)tetrazol-2-yl]methyl]-N-(2-carbamoyl-4-chloro-6-methyl-phenyl)-2-(3-chloro-2-pyridyl)pyrazole-3-carboxamide] as the compound, how does the pest or weed control at 50 µg/mL [1] read?
The pest or weed control at 50 µg/mL was ≥ 80%.

How did the pest or weed control at 50 µg/mL [1] turn out when `Cc1cc(Cl)cc(C(N)=O)c1NC(=O)c1cc(Cn2nnc(-c3ccccc3)n2)nn1-c1ncccc1Cl` [Compound P105, N-(2-carbamoyl-4-chloro-6-methyl-phenyl)-2-(3-chloro-2-pyridyl)-5-[(5-phenyltetrazol-2-yl)methyl] pyrazole-3-carboxamide] was run?
The pest or weed control at 50 µg/mL was ≥ 80%.
